# Data taken from patent US20060188898A1, “Markers for roscovitine” (Cyclacel Limited, priority 2003, published 2006).
# Experiments:
# [1] = system: HT29 colon cancer cells; assay: cDNA microarray analysis of mRNA expression in treated HT29 cells; assay type: cell-based
# From the text: Total RNA was extracted from cell pellets using TriZol (Life Technologies) and mRNA was purified using the Qiagen Oligotex system. mRNA from control and treated cells was labelled with either Cy3 or Cy5 (NEN or Amersham) fluorescent dCTPs respectively, creating cDNA probes. cDNA microarray slides are made and used as described in Eisen, MB and Brown PO. (1999) DNA Arrays for Analysis of Gene Expression. Methods in Enzymology 303:179-205.
# The cDNA probes were then hybridised to the cDNA microarray slides overnight and then washed and scanned using an Axon Labs GenePix 4000B scanner. The slides were verified using GenePix software and normalised prior to analysis in GeneSpring.
# A 2 fold cut-off was used to assign significance to a change in mRNA expression. Therefore, any mRNA with a normalised ratio of medians less than 0.5 (FIGS. 1, 3, 5 and 7) or greater than 2 (FIGS. 2, 4, 6 and 8) is deemed significant.
# [2] = target: CDK7 (Homo sapiens, UniProt P50613); settings: cited from earlier work
# Chain of CDK7 (P50613 whole entry, species assumed): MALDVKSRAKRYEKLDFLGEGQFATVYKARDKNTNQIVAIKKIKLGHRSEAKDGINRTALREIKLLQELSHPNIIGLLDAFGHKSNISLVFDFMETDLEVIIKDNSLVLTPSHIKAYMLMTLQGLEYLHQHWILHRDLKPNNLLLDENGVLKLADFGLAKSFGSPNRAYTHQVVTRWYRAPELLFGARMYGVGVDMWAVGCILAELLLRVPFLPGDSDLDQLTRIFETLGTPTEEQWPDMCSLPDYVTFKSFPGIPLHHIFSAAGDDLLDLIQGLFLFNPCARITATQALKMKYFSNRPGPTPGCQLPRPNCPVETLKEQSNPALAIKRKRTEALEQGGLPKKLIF
# Chain of CDK7 (P51946 whole entry partner, species assumed): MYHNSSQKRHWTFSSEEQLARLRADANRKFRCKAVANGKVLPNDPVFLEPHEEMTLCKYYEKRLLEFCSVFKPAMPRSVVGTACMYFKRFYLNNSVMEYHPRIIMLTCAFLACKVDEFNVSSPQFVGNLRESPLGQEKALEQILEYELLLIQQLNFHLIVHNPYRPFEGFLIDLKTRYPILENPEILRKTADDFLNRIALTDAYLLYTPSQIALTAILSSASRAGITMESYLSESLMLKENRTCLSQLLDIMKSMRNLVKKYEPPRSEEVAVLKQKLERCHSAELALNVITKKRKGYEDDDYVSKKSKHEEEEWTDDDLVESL
# [3] = target: CDK9 (Homo sapiens, UniProt P50750); settings: cited from earlier work
# Chain of CDK9 (P50750 whole entry, species assumed): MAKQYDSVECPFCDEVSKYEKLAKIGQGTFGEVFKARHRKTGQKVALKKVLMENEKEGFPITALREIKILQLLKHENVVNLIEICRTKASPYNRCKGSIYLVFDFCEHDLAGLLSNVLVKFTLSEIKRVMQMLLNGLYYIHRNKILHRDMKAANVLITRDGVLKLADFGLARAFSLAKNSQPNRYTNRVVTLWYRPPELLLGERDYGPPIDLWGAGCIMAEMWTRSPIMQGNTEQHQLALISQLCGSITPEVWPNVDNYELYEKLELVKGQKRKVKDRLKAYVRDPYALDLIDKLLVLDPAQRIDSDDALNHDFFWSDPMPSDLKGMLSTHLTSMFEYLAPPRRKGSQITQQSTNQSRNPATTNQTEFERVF
# Chain of CDK9 (O60563 whole entry partner, species assumed): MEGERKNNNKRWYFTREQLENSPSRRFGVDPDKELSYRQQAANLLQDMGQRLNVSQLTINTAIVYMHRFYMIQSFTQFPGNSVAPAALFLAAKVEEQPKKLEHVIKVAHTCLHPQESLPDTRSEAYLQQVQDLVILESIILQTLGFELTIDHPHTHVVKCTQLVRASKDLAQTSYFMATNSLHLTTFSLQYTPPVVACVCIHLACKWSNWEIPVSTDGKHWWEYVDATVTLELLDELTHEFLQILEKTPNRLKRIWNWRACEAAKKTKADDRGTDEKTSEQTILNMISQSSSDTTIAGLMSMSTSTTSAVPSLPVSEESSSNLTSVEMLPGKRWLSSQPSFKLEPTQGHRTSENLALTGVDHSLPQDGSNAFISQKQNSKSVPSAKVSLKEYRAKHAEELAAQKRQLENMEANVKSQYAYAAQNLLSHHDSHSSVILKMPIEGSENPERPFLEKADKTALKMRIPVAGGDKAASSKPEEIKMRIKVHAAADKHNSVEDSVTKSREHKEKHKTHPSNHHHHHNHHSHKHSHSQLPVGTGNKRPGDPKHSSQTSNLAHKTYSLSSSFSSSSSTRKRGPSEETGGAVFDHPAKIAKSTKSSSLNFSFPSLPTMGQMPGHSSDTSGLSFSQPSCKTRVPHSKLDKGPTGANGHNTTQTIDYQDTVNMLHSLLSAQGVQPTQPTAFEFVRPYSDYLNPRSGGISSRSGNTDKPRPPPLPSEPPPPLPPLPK
# [4] = system: cell cycle progression; settings: cited from earlier work
# [5] = system: HT29 colon cancer cells; assay: Western blotting of protein expression in treated HT29 cells
# Description: HT29 colon cancer cells were seeded into T175 flasks at 3×10^6 cells per flask and allowed to attach for 48 h. […] A cell pellet was made for protein analysis and RNA analysis.
# To harvest cells, the medium was removed and cells were incubated with 5 ml trypsin for 5 min at 37° C. to detach them from the plastic. The cells were then pelleted, washed in ice cold PBS and resuspended in ice cold lysis buffer containing 50 mM HEPES pH7.4, 250 mM NaCl, 0.1% NP40, 1 mM DTT, 1 mM EDTA, 1 mM NaF, 10 mM β-glycerophosphate, 0.1 mM sodium orthovanadate and 1 complete protease inhibitor cocktail tablet (Roche, East Sussex, UK) per 10 ml of lysis buffer for 30 minutes on ice. Lysates were centrifuged at approx. 18, 000×g for 10 minutes at 4° C. to remove cellular debris. The supernatant was stored at −80° C. prior to use. The protein concentration of lysates was determined using the BCA protein assay (Pierce, Rockford, USA). Proteins were separated by SDS-PAGE using Novex precast tris-glycine gels (Invitrogen, Groningen, The Netherlands) and transferred to Immobilon-P membranes (Millipore, Bedford, USA). Membranes were blocked for 1 hour in TBS™ 50 mM Tris pH7.5, 150 mM NaCl, 0.1% Tween 20 (Sigma, Dorset, UK) and 3% milk. Immunoblotting with primary antibodies diluted in TBS™ was performed at 4° C. overnight, followed by a 1 hour incubation with HRP-conjugated secondary antibodies at room temperature. Membranes were washed with ECL reagents and exposed to Hyperfilm (Amersham Pharmacia Biotech, Buckinghamshire, UK).
# [6] = 50 μM CYC202, time course 4-48 h
# [7] = 50 μM CYC202, time course 4-48 h, Western blot
compound,measurement,setting,value
"CC[C@H](CO)Nc1nc(NCc2ccccc2)c2ncn(C(C)C)c2n1 [CYC202, 2-(R)-(1-ethyl-2-hydroxyethylamino)-6-benzylamino-9-isopropylpurine]",c-JUN mRNA expression,"[1]; 50 μM CYC202, 4-48 h",induced to significant levels from 4 h and is maintained at that level for the duration of the experiment
same,EGR-1 mRNA expression,"[1]; 50 μM CYC202, 4-48 h, two fold cut off",induced from as early as 4 h and is maintained above the two fold cut off for the duration of the experiment
same,aurora 1 mRNA expression,[1]; [6],markedly inhibited
same,cyclin B2 mRNA expression,[1]; [6],markedly inhibited
same,polo-like kinase 1 mRNA expression,[1]; [6],markedly inhibited
same,inhibition of CDK7,[2],inhibit
same,inhibition of CDK9,[3],inhibit
same,effect on cell cycle progression,[4],block cell cycle progression in late G1/early S and in M-phase
same,c-JUN protein expression,"[5]; 50 μM CYC202, 4 h and 12 h, Western blot, phosphorylated, active form",induced at 4 h and 12 h
same,EGR-1 protein expression,"[5]; 50 μM CYC202, Western blot",transiently induced at 12 h
same,c-JUN protein expression,"[5]; 50 μM CYC202, after 24 h, Western blot",lost after 24 h
same,aurora 1 protein expression,[5]; [7],markedly inhibited
same,cyclin B2 protein expression,[5]; [7],markedly inhibited
same,polo-like kinase 1 protein expression,[5]; [7],markedly inhibited
